Data from patent publication US20250255867A1 (Kadmon Corporation, LLC, priority 2022, published 2025).
Where two headings read alike, the source gives them in different places.

Columns and labels:
[1] = Example 1: plasma pharmacokinetics (Cmax, Tmax, AUC0-6 hr) of belumosudil and metabolites; format: in vivo, human; conditions: for Tmax: human, oral, read-out: Time of the Maximum Observed Plasma Concentration (Tmax), Median (Full Range); for Maximum Observed Plasma Concentration (Cmax), Geometric Mean (Geometric Coefficient of Variation) / Tmax: plasma
Description: Cmax was the maximum observed plasma concentration, obtained by a non-compartmental analysis. […] Timeframe: Cycles 1 and 2: pre-dose (0 hour), 1, 2, 3, 4, 5, and 6 hours post-dose on Day 1. […] Here, ‘number analyzed’=participants with available data for each specified category.
Tmax was defined as time to reach maximum observed plasma concentration, obtained by a non-compartmental analysis. […] Timeframe: Cycles 1 and 2: pre-dose (0 hour), 1, 2, 3, 4, 5, and 6 hours post-dose on Day 1. Analysis was performed on PK population. Here, ‘number analyzed’=participants with available data for each specified category.
AUC0-6 hr was defined as area under the plasma concentration versus time curve from time 0 to 6 hours post-dose, obtained by a non-compartmental analysis from the concentration-time data. […] Timeframe: Cycles 1 and 2: pre-dose (0 hour), 1, 2, 3, 4, 5, and 6 hours post-dose on Day 1. Analysis was performed on PK population. Here, ‘number analyzed’=participants with available data for each specified category.

subjects with cGVHD = assay: Example 2 phase II randomized study: cGVHD response per 2014 NIH Consensus Criteria (best ORR, organ ORR, DOR, time to response); format: in vivo, human; conditions: for Best ORR: mITT
Description: All responses were assessed by the study site investigators.

[2] = Cohort 1: Belumosudil 200 mg QD, Cycle 1 Day 1
[3] = Cohort 1: Belumosudil 200 mg QD, Cycle 2 Day 1
[4] = Cohort 2: Belumosudil 200 mg BID, Cycle 1 Day 1
[5] = Cohort 2: Belumosudil 200 mg BID, Cycle 2 Day 1
[6] = Cohort 3: Belumosudil 400 mg QD, Cycle 1 Day 1
[7] = Cohort 3: Belumosudil 400 mg QD, Cycle 2 Day 1
[8] = 200 mg BID (n = 66), 42 with organ involved
[9] = 200 mg BID (n = 66), 49 with organ involved
[10] = 200 mg QD (n = 66), 19 with organ involved
[11] = 200 mg daily (n = 66), mITT population
[12] = 200 mg twice daily (n = 66), mITT population
[13] = Total (N = 132), 100 with organ involved
[14] = Total (N = 132), mITT population

In the case of `CC(C)NC(=O)COc1cccc(-c2nc(Nc3ccc4[nH]ncc4c3)c3ccccc3n2)c1` [Belumosudil, 2-{3-[4-(1H-indazol-5-ylamino)-2-quinazolinyl]phenoxy}-N-(propan-2-yl) acetamide], the “Area Under the Plasma Concentration Versus Time Curve From Time 0 to 6 Hours Post-dose (AUC0-6 hr), Geometric Mean (Geometric Coefficient of Variation)” value [1, 2] is reported as 8350 hours*nanograms per milliliter, the “Maximum Observed Plasma Concentration (Cmax), Geometric Mean (Geometric Coefficient of Variation)” value (shortened to “Maximum Observed Plasma Concentration”) [1, 2] is reported as 2500 (60.1%) nanograms per milliliter and the “Area Under the Plasma Concentration Versus Time Curve From Time 0 to 6 Hours Post-dose (AUC0-6 hr), Geometric Mean (Geometric Coefficient of Variation)” value [1, 3] is reported as 7090 (95.9%) hours*nanograms per milliliter. The “Maximum Observed Plasma Concentration” value [1, 3] was 2020 (101%) nanograms per milliliter, the “Area Under the Plasma Concentration Versus Time Curve From Time 0 to 6 Hours Post-dose (AUC0-6 hr), Geometric Mean (Geometric Coefficient of Variation)” value [1, 4] was 4960 hours*nanograms per milliliter and the “Maximum Observed Plasma Concentration” value [1, 4] was 1400 (98.5%) nanograms per milliliter. For the same compound, the “Area Under the Plasma Concentration Versus Time Curve From Time 0 to 6 Hours Post-dose (AUC0-6 hr), Geometric Mean (Geometric Coefficient of Variation)” value [1, 5] was 7190 (115%) hours*nanograms per milliliter, the “Maximum Observed Plasma Concentration” value [1, 5] was 1890 (120%) nanograms per milliliter and the “Area Under the Plasma Concentration Versus Time Curve From Time 0 to 6 Hours Post-dose (AUC0-6 hr), Geometric Mean (Geometric Coefficient of Variation)” value [1, 6] was 11500 hours*nanograms per milliliter. The “Maximum Observed Plasma Concentration” value [1, 6] was 2960 (69.7%) nanograms per milliliter, the “Area Under the Plasma Concentration Versus Time Curve From Time 0 to 6 Hours Post-dose (AUC0-6 hr), Geometric Mean (Geometric Coefficient of Variation)” value [1, 7] was 12000 hours*nanograms per milliliter and the “Maximum Observed Plasma Concentration” value [1, 7] was 3270 (63.0%) nanograms per milliliter. The Tmax ([1]; 200 mg, Cohort 1: Belumosudil 200 mg QD, Cycle 1 Day 1) was 2.12 h, the Tmax ([1]; 200 mg, Cohort 1: Belumosudil 200 mg QD, Cycle 2 Day 1) was 2.53 h and the Tmax ([1]; 200 mg, Cohort 2: Belumosudil 200 mg BID, Cycle 1 Day 1) was 3.43 h. The Tmax ([1]; 200 mg, Cohort 2: Belumosudil 200 mg BID, Cycle 2 Day 1) was 2.47 h, the Tmax ([1]; 400 mg, Cohort 3: Belumosudil 400 mg QD, Cycle 1 Day 1) was 3.03 h and the Tmax ([1]; 400 mg, Cohort 3: Belumosudil 400 mg QD, Cycle 2 Day 1) was 2.66 h. The “PR, Liver” value (subjects with cGVHD; 200 mg BID (n = 66), 4 with organ involved) was 0 n (%), the “PR, Upper GI” value (subjects with cGVHD; 200 mg BID (n = 66), 10 with organ involved) was 0 n (%) and the “PR, Esophagus” value (subjects with cGVHD; 200 mg BID (n = 66), 12 with organ involved) was 0 n (%). For the same compound, the “CR, Mouth” value (subjects with cGVHD; [8]) was 17 (41) n (%), the “ORR, Mouth” value (subjects with cGVHD; [8]) was 24 (57) n (%) and the “CR, Eyes” value (subjects with cGVHD; [9]) was 6 (12) n (%). The “ORR, Joints and fascia” value (subjects with cGVHD; [9]) was 33 (67) n (%), the “PR, Skin” value (subjects with cGVHD; 200 mg BID (n = 66), 55 with organ involved) was 13 (24) n (%) and the “PR, Lower GI” value (subjects with cGVHD; 200 mg QD (n = 66), 6 with organ involved) was 0 n (%). The “ORR, Upper GI” value (subjects with cGVHD; 200 mg QD (n = 66), 13 with organ involved) was 8 (62) n (%), the “CR, Esophagus” value (subjects with cGVHD; [10]) was 9 (47) n (%) and the “PR, Esophagus” value (subjects with cGVHD; [10]) was 0 n (%). The “CR, responses occurring within 6 mo of treatment” value (subjects with cGVHD; [11]) was 2 (3) n (%), the “CR, responses occurring within 12 mo of treatment” value (subjects with cGVHD; [11]) was 4 (6) n (%) and the “ORR for responses occurring within 6 mo of treatment” value (subjects with cGVHD; [11]) was 47 (71) n (%). For the same compound, the “Best ORR” value (subjects with cGVHD; 200 mg daily) was 74%, the “CR, responses occurring within 6 mo of treatment” value (subjects with cGVHD; [12]) was 1 (2) n (%) and the “CR, responses occurring within 12 mo of treatment” value (subjects with cGVHD; [12]) was 2 (3) n (%). For the same compound, the ORR (subjects with cGVHD; [12]) was 51 (77) n (%), the “ORR for responses occurring within 12 mo of treatment” value (subjects with cGVHD; [12]) was 50 (76) n (%) and the “PR, responses occurring within 6 mo of treatment” value (subjects with cGVHD; [12]) was 47 (71) n (%). The “PR, responses occurring within 12 mo of treatment” value (subjects with cGVHD; [12]) was 48 (73) n (%), the “Best ORR” value (subjects with cGVHD; 200 mg twice daily) was 77% and the “Median increase in FEV1, lung CR based on normalization of FEV1” value (subjects with cGVHD; 3 subjects, range, 18-25) was 23%. For the same compound, the “PR, Esophagus” value (subjects with cGVHD; Total (N = 132), 31 with organ involved) was 0 n (%), the “CR, Eyes” value (subjects with cGVHD; Total (N = 132), 97 with organ involved) was 14 (14) n (%) and the “CR, Joints and fascia” value (subjects with cGVHD; [13]) was 20 (20) n (%). The “ORR, Joints and fascia” value (subjects with cGVHD; [13]) was 71 (71) n (%), the “PR, Joints and fascia” value (subjects with cGVHD; [13]) was 51 (51) n (%) and the “CR, Skin” value (subjects with cGVHD; Total (N = 132), 110 with organ involved) was 18 (16) n (%). For the same compound, the “CR, responses occurring within 6 mo of treatment” value (subjects with cGVHD; [14]) was 3 (2) n (%), the “CR, responses occurring within 12 mo of treatment” value (subjects with cGVHD; [14]) was 6 (5) n (%) and the “PR, responses occurring within 6 mo of treatment” value (subjects with cGVHD; [14]) was 92 (70) n (%). The “PR, responses occurring within 12 mo of treatment” value (subjects with cGVHD; [14]) was 93 (71) n (%), the “Best ORR in subjects refractory to their last lines of therapy” value (subjects with cGVHD; in vivo) was 75% and the “ORR, prior ruxolitinib therapy subgroup” value (subjects with cGVHD; pooled arms, n=38) was 68%. For the same compound, the “ORR, prior ibrutinib therapy subgroup” value (subjects with cGVHD; pooled arms, n=46) was 74%, the “Median increase in FEV1, all subjects achieving lung PR” value (subjects with cGVHD; range, 0-15) was 10% and the “Overall median time to response” value (subjects with cGVHD; range, 4-66) was 5 weeks. The “Median DOR” value (subjects with cGVHD; responder population) was 54 weeks.
